Counter-ions that a name gives are not always drawn. Like-named read-outs stand apart in the source and are kept apart here.
Legend:
[1] = cited from earlier work
[2] = system: tremor induced by tremorine; assay: animal or person; type: in vivo, mice; settings: for ED50: Mus musculus; for ED50 / T.I. (therapeutic index) (Table 1) / T.I. (therapeutic index) (Table 2): po; for ED50 p.o., inhibition of tremor induced by tremorine (Table 1) / ED50 p.o., inhibition of tremor induced by tremorine (Table 2): hydrochloride
Method: (§1) The hydrochloride of the racemic compound, the hydrochloride of the (-)-isomer [compound of Example 6; the salt has (+) rotation] and the hydrochloride of the (+)-isomer [compound of Example 7; the salt has (-) rotation] were tested for acute toxicity on mice with peroral treatment and for the inhibition of tremor induced by tremorine (the latter test characterizes the action against Parkinson's disease). In the latter case, the inhibition of tremor induced by tremorine [1,1'-(2-butynylene)-dipyrrolidine] administered intraperitoneally at a dosage of 20 mg/kg was tested on mice as described in Science, 124, 79 (1956). The compound to be examined was given perorally to a population of 50 mice one hour prior to the administration of tremorine, and the tremor developed was evaluated 45 minutes after the administration of tremorine.
Since a lower population of mice was used, less exact values of ED50 were obtained for the compounds tested. Thus, the therapeutic index calculated for the racemic compound is lower by a factor of about 2.4 than the value given in U.S. Pat. No. 4 4,208,410. However, the data obtained under identical test circumstances on a relatively low number of test animals can be compared with each other.
(§2) To make sure that no contradiction exists between the data of Table I on the one hand, and the data of U.S. Pat. No. 4,208,410 on the other hand, the above tests was repeated using a population of 500 mice for each compound tested.

[3] = Acute toxicity on mice with peroral treatment; type: in vivo; settings: mouse, in vivo, po
Method: as §1, §2

[4] = Local anaesthetic activity; type: in vivo; settings: primary tests / detailed tests
mice = assay: Acute toxicity on mice with peroral treatment; type: in vivo; settings: for LD50 p.o. (Table 1): Table 1, hydrochloride; for LD50 p.o. (Table 2): repeated test, population of 500 mice for each compound, hydrochloride
Method: as §1, §2

[5] = population of 500 mice, U.S. Pat. No. 4,208,410
[6] = p.o. one hour before tremorine 20 mg/kg i.p., evaluated 45 minutes after tremorine, population of 50 mice
[7] = repeated test, population of 500 mice for each compound

| SMILES | local anaesthetic and antiparkinsonic activity ([1]; known from U.S. Pat. No. 4,208,410) | ED50, antiparkinsonic activity [1, 5] [mg/kg] | therapeutic index [1, 5] | ED50 ([2]; p.o. one hour before tremorine 20 mg/kg i.p., evaluated 45 minutes after tremorine, population of 50 mice, read-out: ED50 p.o., inhibition of tremor induced by tremorine (Table 1)) [mg/kg] | ED50 ([2]; repeated test, population of 500 mice for each compound, read-out: ED50 p.o., inhibition of tremor induced by tremorine (Table 2)) [mg/kg] | factor by which the therapeutic index is lower than the value given in U.S. Pat. No. 4,208,410 ([2]; mouse, in vivo) | T.I. (therapeutic index) (Table 1) ([2]; mouse, in vivo) | T.I. (therapeutic index) (Table 2) ([2]; mouse, in vivo) | LD50 ([3]; Table 1, read-out: LD50 p.o. (Table 1)) [mg/kg] | LD50 ([3]; repeated test, population of 500 mice for each compound, read-out: LD50 p.o. (Table 2)) [mg/kg] | local anaesthetic activity [4] | ED50 p.o., inhibition of tremor induced by tremorine (Table 1) [2, 6] [mg/kg] | ED50 p.o., inhibition of tremor induced by tremorine (Table 2) [2, 7] [mg/kg] | LD50 p.o. (Table 1) (mice) [mg/kg] | LD50 p.o. (Table 2) (mice) [mg/kg] |
| --- | --- | --- | --- | --- | --- | --- | --- | --- | --- | --- | --- | --- | --- | --- | --- |
| CC(CN(C)C)CN1c2ccccc2OCOc2ccc(Cl)cc21 (racemic) [2-chloro-12-(3-dimethylamino-2-methylpropyl)-12H-dibenzo[d,g][1,3,6]-dioxazocine] | has local anaesthetic and antiparkinsonic activity | 11 | 25 |  |  |  |  |  |  |  |  |  |  |  |  |
| CC(CN(C)C)CN1c2ccccc2OCOc2ccc(Cl)cc21 (racemic) [racemic, reference compound] |  |  |  | 25 | 10.5 | about 2.4 | 10.8 | 25.7 | 270 | 270 | has local anaesthetic activity, detailed tests have not shown any therapeutically valuable effect |  |  |  |  |
| CC(CN(C)C)CN1c2ccccc2OCOc2ccc(Cl)cc21 (single isomer, unassigned; (+)) [Example 6, (+)-2-chloro-12-(3-dimethylamino-2-methylpropyl)-12H-dibenzo[d,g][1,3,6]dioxazocine hydrochloride] |  |  |  |  |  |  | 72.7 | 168.4 |  |  |  | 2.2 | 0.95 | 160 | 160 |
| CC(CN(C)C)CN1c2ccccc2OCOc2ccc(Cl)cc21 (single isomer, unassigned; (-)) [Example 7, (-)-2-Chloro-12-(3-dimethylamino-2-methylpropyl)-12H-dibenzo[d,g][1,3,6]dioxazocine hydrochloride] |  |  |  |  |  |  | 65.7 | 160.8 |  |  |  | 7 | 2.86 | 460 | 460 |
